Measurements taken from the supplement of paper PMC10331698.
± gives the standard deviation of the averaged measurements.

How the values were obtained:
Experiment in all cases: LOEC (log10 uM (lowest observed effect concentration))
[1] = compound: OCC(F)(F)C(F)(F)C(F)(F)C(F)(F)C(F)(F)C(F)(F)C(F)(F)C(F)(F)CO [1H,1H,10H,10H-Perfluorodecane-1,10-diol]
Experimental: (§1)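 BioMAP Diversity Plus panel in human primary cell co-cultures, 4 concentrations in duplicate blinded samples. Responses are log10 fold change versus DMSO control, processed with tcpl v2.1.0. A hit is called when responses at any concentration exceed the cutoff (the larger of 3*bmad or log10(1.2)); the lowest observed effect concentration (modl_ga, log10 uM) is reported for hits.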

[2] = compound: FC(F)(I)C(F)(F)C(F)(F)C(F)(F)C(F)(F)C(F)(F)I [1,6-Diiodoperfluorohexane]
Experimental: as §1

Perfluoropinacol = compound: OC(C(F)(F)F)(C(F)(F)F)C(O)(C(F)(F)F)C(F)(F)F [Perfluoropinacol]
Experimental: as §1

[3] = compound: O=C(CC(=O)C(F)(F)C(F)(F)C(F)(F)F)c1cccs1 [(Perfluorobutyryl)-2-thenoylmethane]
Experimental: as §1

[4] = compound: OCCCC(F)(F)C(F)(F)C(F)(F)C(F)(F)C(F)(F)C(F)(F)C(F)(F)C(F)(F)F [3-(Perfluorooctyl)propanol]
Experimental: as §1

[5] = compound: C=CC(=O)OCC(F)(F)C(F)(F)C(F)(F)C(F)(F)COC(=O)C=C [1H,1H,6H,6H-Perfluorohexane-1,6-diol diacrylate]
Experimental: as §1

[6] = compound: OCCC(F)(F)C(F)(F)C(F)(F)C(F)(F)C(F)(F)C(F)(F)C(F)(F)C(F)(F)F [8:2 Fluorotelomer alcohol]
Experimental: as §1

[7] = compound: OCC(F)(F)C(F)(F)C(F)(F)C(F)(F)C(F)(F)C(F)(F)C(F)(F)C(F)(F)C(F)(F)C(F)(F)C(F)(F)F [11:1 Fluorotelomer alcohol]
Experimental: as §1

Perfluorooctanoic acid = compound: O=C(O)C(F)(F)C(F)(F)C(F)(F)C(F)(F)C(F)(F)C(F)(F)C(F)(F)F [Perfluorooctanoic acid]
Experimental: as §1

Test System	LOEC (log10 uM) [1]	LOEC (log10 uM) [2]	LOEC (log10 uM) (Perfluoropinacol)	LOEC (log10 uM) [3]	LOEC (log10 uM) [4]	LOEC (log10 uM) [5]	LOEC (log10 uM) [6]	LOEC (log10 uM) [7]	LOEC (log10 uM) (Perfluorooctanoic acid)
IMphg CD69 down	1.78	1.78	1.07 ± 0.32	0.845	1.78	1.78	1.54 ± 0.34	–	–
IMphg ESelectin down	1.54 ± 0.34	1.3	1.3	1.07 ± 0.32	1.07 ± 0.32	1.3	1.78	–	–
IMphg ESelectin up	–	–	–	–	–	–	–	0.0396 ± 0.37	–
IMphg IL1a down	1.78	–	–	–	1.78	–	–	–	–
IMphg IL8 down	1.78	1.78	–	–	–	–	–	–	–
IMphg MCP1 down	1.78	1.3	1.3	1.3	1.3	1.31 ± 0.66	1.78	–	–
IMphg MCSF down	1.78	1.78	1.54 ± 0.34	–	1.78	1.54 ± 0.34	1.78	–	–
IMphg SRB down	1.78	1.3	1.3	1.3	1.54 ± 0.34	–	1.78	–	–
IMphg SRB.Mphg down	1.54 ± 0.34	1.3	1.78	1.78	1.07 ± 0.32	–	1.78	-0.222	–
IMphg VCAM1 down	1.78	1.3	1.54 ± 0.34	1.54 ± 0.34	1.3	1.3	1.78	–	–
KF3CT ICAM1 down	1.78	1.07 ± 0.32	–	–	1.3	1.3	1.3	–	–
KF3CT MCP1 down	1.78	0.845	–	–	1.3	1.07 ± 0.32	1.3	–	–
KF3CT MIG down	1.78	1.07 ± 0.32	1.78	–	1.3	1.3	1.54 ± 0.34	–	–
KF3CT PAI1 down	1.78	0.845	1.78	–	1.07 ± 0.32	1.3	1.3	–	–
KF3CT SRB down	1.78	1.07 ± 0.32	1.78	–	1.3	1.78	1.3	–	–
KF3CT TIMP2 down	1.78	1.07 ± 0.32	1.78	–	1.3	1.07 ± 0.32	1.3	–	–
LPS CD40 down	–	1.78	1.3	1.54 ± 0.34	1.3	0.845	1.3	–	–
LPS IL8 up	–	–	–	–	–	–	–	–	1.78
LPS MCP1 down	–	1.78	1.3	1.3	1.07 ± 0.32	1.3	1.3	–	–
LPS PGE2 up	–	–	1.3	–	–	–	–	-0.722 ± 0.71	–
LPS SRB down	–	1.78	1.3	1.3	1.3	1.3	1.3	–	–
LPS VCAM1 down	–	1.54 ± 0.34	1.54 ± 0.34	1.78	1.07 ± 0.32	1.3	1.07 ± 0.32	–	–
